Reference: EP4471028A1, “HYDRAZINO GROUP-CONTAINING COMPOUND” (priority 2022, dated 2023)

Legend:
[1] = In vitro liver microsomal metabolic stability; type: in vitro ADME; conditions: human, liver microsomes, pH 7.4; 0.5 mg/mL microsomes, NADPH, 37 °C, 60 min; read-out: Human liver microsome Residual rate at 60 min%
Experimental: Liver microsome incubation samples were prepared by mixing a PBS buffer (pH 7.4), a liver microsome solution (0.5 mg/mL; species: human, monkey, dog, rat, and mouse), a test compound, and an NADPH + MgCl2 solution and incubated at 37 °C and 300 rpm for 1 h. Zero-hour samples were prepared by mixing a PBS buffer (pH 7.4), a liver microsome solution (0.5 mg/mL), and a test compound. An acetonitrile solution containing an internal standard was added to the samples, and supernatants were prepared by protein precipitation, diluted, and then assayed by LC/MS/MS.

[2] = In vivo pharmacokinetics (Table 4); conditions: plasma; for bioavailability: po, IG 10mg/kg versus IV 1mg/kg, read-out: Absolute F; for clearance: IV, 1mg/kg, read-out: CLz (converted)

Compound | remaining at 1 h [1] [%] | bioavailability [2] [%] | clearance [2] [mL/min/kg]
CC(C)n1c(=O)n(N)c2cnc3cc(F)c(-c4ccc(OCCCN5CC(CF)C5)nc4)cc3c21 [Example 28] | 65.6 | 77.4 | 7.45
CC(C)n1c(=O)n(N)c2cnc3cc(F)c(-c4ccc(OCCCN5CCCC5)nc4)cc3c21 [Example 3] | 86.3 | 95.5 | 36.3
COC1CCC(n2c(=O)n(N)c3cnc4cc(F)c(-c5ccc(OCCCN(C)C)nc5)cc4c32)C1 (centres unmarked) [Example 14] | 66.2 |  | 
COC1CCC(n2c(=O)n(N)c3cnc4cc(F)c(-c5ccc(OCCCN6CCCC6)nc5)cc4c32)C1 (centres unmarked) [Example 13] | 56 |  | 
Nn1c(=O)n(C2CC2)c2c3cc(-c4ccc(OCCCN5CCCCC5)nc4)c(F)cc3ncc21 [Example 18] |  | 75.9 | 26.7
Nn1c(=O)n(C2CCOCC2)c2c3cc(-c4ccc(OCCCN5CCCC5)nc4)c(F)cc3ncc21 [Example 5] | 90.6 |  | 
CC(C)n1c(=O)n(N)c2cnc3cc(F)c(-c4ccc(OCC5CC(N6CCCC6)C5)nc4)cc3c21 (centres unmarked) [Example 22] | 73.3 |  | 
CC(C)n1c(=O)n(N)c2cnc3cc(F)c(-c4ccc(OCCCN5CCCCC5)nc4)cc3c21 [Example 2] | 64.4 | 79.7 | 31
CC(C)n1c(=O)n(N)c2cnc3cc(F)c(-c4ccc(OCCCN5C6CCC5CC6)nc4)cc3c21 [Example 27] |  | 115 | 59.7
COc1cc2ncc3c(c2cc1-c1ccc(OCCCN2CCCCC2)nc1)n(C(C)C)c(=O)n3N [Example 16] | 72.4 |  | 
CC(C)n1c(=O)n(N)c2nnc3cc(F)c(-c4ccc(OCCCN5CCCCC5)nc4)cc3c21 [Example 32] | 95.8 |  | 
COc1cc2ncc3c(c2cc1-c1ccc(OCCCN2CCCC2)nc1)n(C1CC1)c(=O)n3N [Example 11] | 58.6 |  | 
Nn1c(=O)n(C2CC2)c2c3cc(-c4ccc(OCCCN5CCCC5)nc4)c(F)cc3ncc21 [Example 19] | 77 | 88.3 | 35.2
Nn1c(=O)n(C2CCOCC2)c2c3cc(-c4ccc(OCCCN5CCCCC5)nc4)c(F)cc3ncc21 [Example 15] | 58.4 |  | 
CC(C)n1c(=O)n(N)c2cnc3cc(F)c(-c4ccc(OCCCN5CC6(CCC6)C5)nc4)cc3c21 [Example 29] | 64.9 | 85.9 | 5.27
COc1cc2ncc3c(c2cc1-c1ccc(OCCCN2CCCC2)nc1)n(C(C)C)c(=O)n3N [Example 17] | 85.2 |  | 
COC1CC(n2c(=O)n(N)c3cnc4cc(F)c(-c5ccc(OCCCN(C)C)nc5)cc4c32)C1 (centres unmarked) [Example 21] | 79.6 |  | 
